Patent publication US20070117770A1, “Human ribosomal DNA (rDNA) and ribosomal RNA (rRNA) nucleic acids and uses thereof” (Cylene Pharmaceuticals, Inc., priority 2005, published 2007)

Key:
Assay in all cases: Protein kinase inhibition assay
Assay type in all cases: biochemical
[1] = molecular target: IRAK4(h) (Homo sapiens, UniProt Q9NWZ3); settings: read-out: percent residual activity of IRAK4(h)
Description: (§1) Certain compounds were tested for activity in protein kinase inhibition assays. All substrates were dissolved and diluted to working stocks in de-ionized water, apart from histone H1 (10× working stock in 20 mM MOPS pH 7.0), PDKtide (10× working stock in 50 mM Tris pH 7.0) ATF2 (which is typically stored at a 20× working stock in 50 mM Tris pH 7.5, 150 mM NaCl, 0.1 mM EGTA, 0.03% Brij-35, 50% glycerol, 1 mM benzamidine, 0.2 mM PMSF and 0.1% R-mercaptoethanol), KKLNRTLSFAEPG (SEQ ID NO:203) and RRRLSFAEPG (SEQ ID NO:204) (50 mM HEPES pH 7.4) and GGEEEEYFELVKKKK (SEQ ID NO:205) (20 mM MOPS pH 7.0). All kinases were pre-diluted to a 10× working concentration prior to addition into the assay. The composition of the dilution buffer for each kinase is detailed below.
(§2) In a final reaction volume of 25 μl, IRAK4 (h) (5-10 mU) is incubated with 8 mM MOPS pH 7.0, 0.2 mM EDTA, 0.33 mg/ml myelin basic protein, 10 mM MgAcetate and [gamma-33P-ATP] (specific activity approx. 500 cpm/pmol, concentration as required). The reaction is initiated by the addition of the MgATP mix. After incubation for 40 minutes at room temperature, the reaction is stopped by the addition of 5 μl of a 3% phosphoric acid solution. 10 μl of the reaction is then spotted onto a P30 filtermat and washed three times for 5 minutes in 75 mM phosphoric acid and once in methanol prior to drying and scintillation counting.

[2] = molecular target: T1, MKK7β(h) (Homo sapiens, UniProt O14733); settings: for remaining activity at 2.5 µM: read-out: percent residual activity of MKK7β(h)
T1 sequence (O14733 1-419): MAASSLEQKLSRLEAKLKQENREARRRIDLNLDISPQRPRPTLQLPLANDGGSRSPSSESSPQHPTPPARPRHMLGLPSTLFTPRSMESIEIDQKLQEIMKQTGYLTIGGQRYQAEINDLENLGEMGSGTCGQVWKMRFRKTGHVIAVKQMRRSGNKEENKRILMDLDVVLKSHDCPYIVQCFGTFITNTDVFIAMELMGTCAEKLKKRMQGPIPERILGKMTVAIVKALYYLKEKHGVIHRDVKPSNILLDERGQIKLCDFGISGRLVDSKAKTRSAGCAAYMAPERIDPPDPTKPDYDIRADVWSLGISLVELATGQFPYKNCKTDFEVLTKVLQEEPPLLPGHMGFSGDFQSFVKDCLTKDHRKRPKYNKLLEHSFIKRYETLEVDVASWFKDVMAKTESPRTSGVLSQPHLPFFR
Description: as §1
The reaction is initiated by the addition of the MgATP. After incubation for 40 minutes at room temperature, 5 μl of this incubation mix is used to initiate a JNK1α1 (h) assay, which is exactly as described on page 11 of this book except that ATF2 is replaced with 250 μM peptide.

[3] = molecular target: PRAK(h) (Homo sapiens, UniProt Q8IW41); settings: read-out: percent residual activity of PRAK(h)
Chain of PRAK(h) (Q8IW41 whole entry): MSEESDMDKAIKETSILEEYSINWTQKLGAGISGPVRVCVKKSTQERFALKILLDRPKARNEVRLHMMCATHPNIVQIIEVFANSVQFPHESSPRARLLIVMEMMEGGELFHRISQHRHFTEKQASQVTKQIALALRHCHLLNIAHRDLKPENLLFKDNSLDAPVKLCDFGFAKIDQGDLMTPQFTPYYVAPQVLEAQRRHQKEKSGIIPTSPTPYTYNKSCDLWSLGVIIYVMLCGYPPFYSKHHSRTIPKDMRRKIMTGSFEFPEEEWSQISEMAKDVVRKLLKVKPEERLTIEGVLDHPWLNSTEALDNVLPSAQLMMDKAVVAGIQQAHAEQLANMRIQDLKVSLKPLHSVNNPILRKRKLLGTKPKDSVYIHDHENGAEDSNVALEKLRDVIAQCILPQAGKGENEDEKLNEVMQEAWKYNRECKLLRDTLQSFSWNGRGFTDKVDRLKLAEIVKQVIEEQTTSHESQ
Description: as §1
In a final reaction volume of 25 μl, PRAK (h) (5-10 mU) is incubated with 50 mM Na R-glycerophosphate pH 7.5, 0.1 mM EGTA, 30 μM KKLRRTLSVA (SEQ ID NO:212), 10 mM MgAcetate and [gamma-33P-ATP) (specific activity approx. 500 cpm/pmol, concentration as required). The reaction is initiated by the addition of the MgATP mix. After incubation for 40 minutes at room temperature, the reaction is stopped by the addition of 5 μl of a 3% phosphoric acid solution. […]

[4] = molecular target: SAPK2b(h) (Homo sapiens, UniProt Q15759); settings: read-out: percent residual activity of SAPK2b(h)
Chain of SAPK2b(h) (Q15759 whole entry): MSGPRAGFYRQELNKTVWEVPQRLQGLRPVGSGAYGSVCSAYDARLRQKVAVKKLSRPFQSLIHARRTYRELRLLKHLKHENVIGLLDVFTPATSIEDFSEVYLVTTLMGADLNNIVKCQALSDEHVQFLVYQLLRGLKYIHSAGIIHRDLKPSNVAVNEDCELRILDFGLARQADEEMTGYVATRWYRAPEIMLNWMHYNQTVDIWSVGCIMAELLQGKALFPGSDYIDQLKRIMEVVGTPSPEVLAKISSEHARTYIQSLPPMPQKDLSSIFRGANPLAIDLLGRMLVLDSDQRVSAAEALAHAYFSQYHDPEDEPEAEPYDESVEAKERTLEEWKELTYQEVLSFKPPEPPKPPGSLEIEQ
Description: as §1
as §2, with “SAPK2b” for “IRAK4”, “25” for “8”, “Tris” for “MOPS”, “7.5, 0.02” for “7.0, 0.2”, “EGTA,” for “EDTA,”

[5] = molecular target: SGK3(h) (Homo sapiens, UniProt Q96BR1); settings: read-out: percent residual activity of SGK3(h)
Chain of SGK3(h) (Q96BR1 whole entry): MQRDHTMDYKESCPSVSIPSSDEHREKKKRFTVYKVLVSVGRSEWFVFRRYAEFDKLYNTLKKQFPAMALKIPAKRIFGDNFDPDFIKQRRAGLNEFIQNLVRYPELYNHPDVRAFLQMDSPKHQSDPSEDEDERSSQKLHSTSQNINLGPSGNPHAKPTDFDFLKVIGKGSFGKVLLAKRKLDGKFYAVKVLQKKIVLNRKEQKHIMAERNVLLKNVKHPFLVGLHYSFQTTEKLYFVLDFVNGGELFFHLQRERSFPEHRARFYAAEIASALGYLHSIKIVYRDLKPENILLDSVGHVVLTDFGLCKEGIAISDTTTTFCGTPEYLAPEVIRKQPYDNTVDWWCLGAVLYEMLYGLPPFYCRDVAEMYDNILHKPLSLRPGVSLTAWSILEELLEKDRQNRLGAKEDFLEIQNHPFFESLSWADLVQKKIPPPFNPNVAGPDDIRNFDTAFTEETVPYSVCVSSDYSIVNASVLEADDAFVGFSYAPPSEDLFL
Description: as §1
as §2, with “SGK3” for “IRAK4”, “250 μM GRPRTSSFAEGKK (SEQ ID NO:226),” for “0.33 mg/ml myelin basic protein,”

[6] = molecular target: Tie2(h) (Homo sapiens, UniProt Q02763); settings: for remaining activity at 2.5 µM: read-out: percent residual activity of Tie2(h)
Chain of Tie2(h) (Q02763 23-1124): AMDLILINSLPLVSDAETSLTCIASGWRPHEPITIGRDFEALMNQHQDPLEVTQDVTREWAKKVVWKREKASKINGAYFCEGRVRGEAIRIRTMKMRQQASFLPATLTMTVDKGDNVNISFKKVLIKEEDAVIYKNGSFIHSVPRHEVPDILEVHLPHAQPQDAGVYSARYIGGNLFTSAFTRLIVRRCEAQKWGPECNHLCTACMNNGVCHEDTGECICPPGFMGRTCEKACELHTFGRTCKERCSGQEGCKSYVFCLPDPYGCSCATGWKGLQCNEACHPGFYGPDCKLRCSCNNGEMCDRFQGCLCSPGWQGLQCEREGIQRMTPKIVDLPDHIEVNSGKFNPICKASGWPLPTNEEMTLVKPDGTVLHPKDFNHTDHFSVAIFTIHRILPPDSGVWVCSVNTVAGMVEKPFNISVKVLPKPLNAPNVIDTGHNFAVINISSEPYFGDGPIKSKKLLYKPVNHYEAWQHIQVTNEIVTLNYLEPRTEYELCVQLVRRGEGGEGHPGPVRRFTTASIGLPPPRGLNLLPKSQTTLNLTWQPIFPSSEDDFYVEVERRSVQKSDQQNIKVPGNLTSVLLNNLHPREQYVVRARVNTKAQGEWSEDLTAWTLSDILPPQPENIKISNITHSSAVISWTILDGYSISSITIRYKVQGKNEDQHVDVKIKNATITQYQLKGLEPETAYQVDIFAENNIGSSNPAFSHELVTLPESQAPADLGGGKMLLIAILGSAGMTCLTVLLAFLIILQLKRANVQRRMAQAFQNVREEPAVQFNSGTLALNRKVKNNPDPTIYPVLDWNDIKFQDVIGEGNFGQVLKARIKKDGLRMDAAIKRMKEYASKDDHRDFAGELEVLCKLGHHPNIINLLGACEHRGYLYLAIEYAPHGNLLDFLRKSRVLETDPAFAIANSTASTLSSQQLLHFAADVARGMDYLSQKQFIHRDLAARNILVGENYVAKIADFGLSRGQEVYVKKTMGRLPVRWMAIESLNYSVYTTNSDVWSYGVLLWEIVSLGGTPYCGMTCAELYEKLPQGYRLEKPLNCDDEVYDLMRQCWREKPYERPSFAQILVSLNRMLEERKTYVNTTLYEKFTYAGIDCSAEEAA
Description: as §1
as §2, with “Tie2” for “IRAK4”, “0.5 mM MnCl2, 0.1” for “0.33”, “poly(Glu, Tyr) 4:1,” for “myelin basic protein,”, “Filtermat A” for “P30 filtermat”

Chain of IRAK4(h) (Q9NWZ3 whole entry): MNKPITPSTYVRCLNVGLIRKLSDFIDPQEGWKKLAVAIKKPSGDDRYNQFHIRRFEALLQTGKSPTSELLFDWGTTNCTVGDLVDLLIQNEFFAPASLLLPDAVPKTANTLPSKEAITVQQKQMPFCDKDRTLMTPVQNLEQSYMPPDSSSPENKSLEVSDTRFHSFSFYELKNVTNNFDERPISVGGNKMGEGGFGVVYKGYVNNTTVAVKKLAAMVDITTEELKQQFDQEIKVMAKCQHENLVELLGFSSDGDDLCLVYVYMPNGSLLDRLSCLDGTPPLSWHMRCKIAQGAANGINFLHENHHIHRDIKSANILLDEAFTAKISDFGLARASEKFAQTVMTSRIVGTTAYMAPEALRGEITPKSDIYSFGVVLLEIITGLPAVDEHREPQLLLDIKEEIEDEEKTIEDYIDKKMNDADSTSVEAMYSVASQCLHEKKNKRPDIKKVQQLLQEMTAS

remaining activity at 2.5 µM [1] [%] | remaining activity at 2.5 µM [2] [%] | remaining activity at 2.5 µM [3] [%] | remaining activity at 2.5 µM [4] [%] | remaining activity at 2.5 µM [5] [%] | inhibition at 2.5 µM [6] [%] | remaining activity at 2.5 µM [6] [%] | inhibition of MKK7B ([2]; 2.5 μM) | Structure (SMILES)
98 | 111 | 105 | 70 | 44 | > 80 | 13 |  | CN1CCCC1CCNC(=O)c1cn2c3c(c(N4CCC(c5cnccn5)C4)c(F)cc3c1=O)Oc1cc3ccccc3cc1-2 (centres unmarked) [Compound A-1]
107 | 1 | 111 | 94 | 128 |  | 115 | inhibits MKK7B | CC(=O)N1CCN(c2ccc3c(=O)c(C(=O)NCCN4CCCC4)c4n(C)c5ccccc5n4c3n2)CC1 [Compound B-1]
